One block for each molecule: values may come before it.
Experiment: solvent given as SMILES
[1] = in CCCCCCCCC=CCCCCCCCC(=O)OCC(COC(=O)CCCCCCCC=CCCCCCCCC)OC(=O)CCCCCCCC=CCCCCCCCC

solvation free energy, 298 K (in O): -9.65 kcal/mol
Structure (SMILES): N#Cc1cccc(O)c1

solvation free energy, 298 K (in O): 2.13 kcal/mol
Structure (SMILES): CCCC1CCCC1

Structure (SMILES): CC(C)CCCCCCCOC(=O)c1ccccc1C(=O)OCCCCCCCC(C)C
solvation free energy, 298 K (in O): -5.93 kcal/mol

solvation free energy, 298 K (in C=CCCCCCCCCCCCCCC): -3.77 kcal/mol
solvation free energy, 298 K (in CN1CCCC1=O): -2.78 kcal/mol
solvation free energy, 298 K (in O): 2.62 kcal/mol
Structure (SMILES): CC(C)C(C)(C)C

solvation free energy, 298 K (in O): -8.61 kcal/mol
Structure (SMILES): O=S1(=O)CCCC1

solvation free energy, 298 K [1]: -13.9 kcal/mol
solvation free energy, 298 K (in O): -6.53 kcal/mol
Structure (SMILES): c1ccc2c(c1)ccc1c3ccccc3ccc21

solvation free energy, 298 K (in O): -7.31 kcal/mol
Structure (SMILES): O=Nc1c(O)ccc2ccccc12

solvation free energy, 298 K (in O): 4.04 kcal/mol
Structure (SMILES): CCCCCCCCCC(C)C

solvation free energy, 298 K (in CC(C)CO): -12.2 kcal/mol
solvation free energy, 298 K (in CC(C)O): -12.2 kcal/mol
solvation free energy, 298 K (in CCC(C)O): -12.5 kcal/mol
solvation free energy, 298 K (in CCCCO): -12.4 kcal/mol
solvation free energy, 298 K (in CCCO): -12.4 kcal/mol
solvation free energy, 298 K (in CCO): -12.4 kcal/mol
solvation free energy, 298 K (in CO): -12.5 kcal/mol
Structure (SMILES): O=C(Oc1ccccc1)c1ccccc1O

Structure (SMILES): Clc1ccc(-c2ccc(Cl)c(Cl)c2)cc1Cl
solvation free energy, 298 K (in O): -3.62 kcal/mol

Structure (SMILES): Clc1ccc(-c2cc(Cl)c(Cl)c(Cl)c2Cl)cc1
solvation free energy, 298 K (in CCCCCCCCO): -12.8 kcal/mol

solvation free energy, 298 K (in O): -3.74 kcal/mol
Structure (SMILES): CCOC(=O)c1ccccc1

solvation free energy, 298 K (in C=CCCCCCCC=C): -29.8 kcal/mol
solvation free energy, 298 K (in C=CCCCCCCCCCCCCCC): -27.4 kcal/mol
solvation free energy, 298 K (in O): -33.7 kcal/mol
Structure (SMILES): CC12CCC(=O)C=C1CCC1C2C(O)CC2(C)C1CCC2(O)C(=O)C(O)C(CCCCC(N)=O)C(N)=O (stereo not given)

Structure (SMILES): CCCCCCCCCCCCCCCCCCO
solvation free energy, 298 K (in CC(C)O): -14.9 kcal/mol
solvation free energy, 298 K (in CCC(C)=O): -13.8 kcal/mol
solvation free energy, 298 K [1]: -12.4 kcal/mol
solvation free energy, 298 K (in CCCCCCCCCCO): -14.9 kcal/mol
solvation free energy, 298 K (in CCCCCCCCO): -14.9 kcal/mol
solvation free energy, 298 K (in CCCCCCO): -14.9 kcal/mol
solvation free energy, 298 K (in CCCCOCCCC): -14.5 kcal/mol
solvation free energy, 298 K (in CCOCC): -15 kcal/mol
solvation free energy, 298 K (in O): -2.43 kcal/mol

Structure (SMILES): Clc1cc(Cl)c(-c2cc(Cl)c(Cl)cc2Cl)cc1Cl
solvation free energy, 298 K (in CCCCCCCCO): -12.9 kcal/mol
solvation free energy, 298 K (in O): -3.1 kcal/mol

Structure (SMILES): c1cc2c3c(cccc3c1)CC2
solvation free energy, 298 K (in C1CCOC1): -9.86 kcal/mol
solvation free energy, 298 K (in C1COCCO1): -9.66 kcal/mol
solvation free energy, 298 K (in CC(C)(C)O): -8.39 kcal/mol
solvation free energy, 298 K (in CC(C)CC(C)(C)C): -8.67 kcal/mol
solvation free energy, 298 K (in CC(C)CC(C)O): -8.46 kcal/mol
solvation free energy, 298 K (in CC(C)CCCC(C)CCO): -8.69 kcal/mol
solvation free energy, 298 K (in CC(C)CCO): -8.43 kcal/mol
solvation free energy, 298 K (in CC(C)CO): -8.4 kcal/mol
solvation free energy, 298 K (in CC(C)O): -8.38 kcal/mol
solvation free energy, 298 K (in CC(C)OC(C)C): -9.11 kcal/mol
solvation free energy, 298 K (in CCC(C)(C)O): -8.61 kcal/mol
solvation free energy, 298 K (in CCC(C)O): -8.46 kcal/mol
solvation free energy, 298 K (in CCCC(C)CO): -8.55 kcal/mol
solvation free energy, 298 K (in CCCC(C)O): -8.52 kcal/mol
solvation free energy, 298 K (in CCCCC(CC)CO): -8.66 kcal/mol
solvation free energy, 298 K (in CCCCCC): -8.86 kcal/mol
solvation free energy, 298 K (in CCCCCCC): -8.89 kcal/mol
solvation free energy, 298 K (in CCCCCCCC): -8.9 kcal/mol
solvation free energy, 298 K [1]: -9.22 kcal/mol
solvation free energy, 298 K (in CCCCCCCCCC): -8.88 kcal/mol
solvation free energy, 298 K (in CCCCCCCCCCO): -8.8 kcal/mol
solvation free energy, 298 K (in CCCCCCCCO): -8.61 kcal/mol
solvation free energy, 298 K (in CCCCCCCO): -8.75 kcal/mol
solvation free energy, 298 K (in CCCCCCO): -8.72 kcal/mol
solvation free energy, 298 K (in CCCCCO): -8.68 kcal/mol
solvation free energy, 298 K (in CCCCO): -8.6 kcal/mol
solvation free energy, 298 K (in CCCCOC(C)=O): -9.43 kcal/mol
solvation free energy, 298 K (in CCCCOCCCC): -9.18 kcal/mol
solvation free energy, 298 K (in CCCO): -8.53 kcal/mol
solvation free energy, 298 K (in CCO): -8.4 kcal/mol
solvation free energy, 298 K (in CCOC(C)=O): -9.44 kcal/mol
solvation free energy, 298 K (in CCOCC): -9.37 kcal/mol
solvation free energy, 298 K (in CNC=O): -8.5 kcal/mol
solvation free energy, 298 K (in CO): -8.21 kcal/mol
solvation free energy, 298 K (in COC(C)(C)C): -9.25 kcal/mol
solvation free energy, 298 K (in COC(C)=O): -9.32 kcal/mol
solvation free energy, 298 K (in Cc1ccc(C)cc1): -9.57 kcal/mol
solvation free energy, 298 K (in Cc1ccccc1C): -9.78 kcal/mol
solvation free energy, 298 K (in ClC(Cl)(Cl)Cl): -9.63 kcal/mol
solvation free energy, 298 K (in ClC(Cl)Cl): -9.84 kcal/mol
solvation free energy, 298 K (in ClCCCl): -9.78 kcal/mol
solvation free energy, 298 K (in O): -3.18 kcal/mol

solvation free energy, 298 K (in O): 0.78 kcal/mol
Structure (SMILES): CC1=CCC2CC3C(C)CCC13C2(C)C (stereo not given)

solvation free energy, 298 K (in CC(=O)N(C)C): -3.75 kcal/mol
solvation free energy, 298 K (in CCCCN(C=O)CCCC): -3.87 kcal/mol
solvation free energy, 298 K (in CN1CCCCC1=O): -3.66 kcal/mol
solvation free energy, 298 K (in CNC(C)=O): -3.62 kcal/mol
solvation free energy, 298 K (in O): -1.01 kcal/mol
Structure (SMILES): CC(C)OC(C)(C)C

solvation free energy, 298 K (in O): -12.6 kcal/mol
Structure (SMILES): Cn1c(=O)c2c(ncn2C)n(C)c1=O

solvation free energy, 298 K (in O): -2.13 kcal/mol
Structure (SMILES): CC(C)CCOC=O

Source: the CombiSolv-Exp solvation set (Vermeire and Green 2021)
